# Assay results as given in EP0126817A1, “Suppressing of graft rejection in organ transplantation” (SHANKSVILLE CORPORATION N.V., priority 1983, dated 1984).
# Assays:
# Assay type in all cases: cell-based
# [1] = tested on: Peripheral blood lymphocytes; experiment: T lymphocyte blast transformation in IL-2 containing culture medium pretreated with the ganglioside and dialysed; details: IL-2 medium RPMI 1640 treated with 5 micrograms per ml at 37°C for 30 minutes, dialysed 24 hours at 4°C; cells incubated 7 days
# Experimental: This Example illustrates that asialo GM1 reacts with a soluble mediator for T lymphocyte blastogenesis inhibiting cytotoxic T cell formation. Peripheral blood lymphocytes are isolated by a density gradient centrifugation on ficoll hypaque and incubated 24 hours in the absence of serum proteins. Interleukin 2 containing tissue culture medium RPMI 1640 is treated with asialo GM1 in a concentration of 5 micrograms per ml of culture medium. The incubation with asialo GM1 is performed at 37°C for 30 minutes. Thereafter,the treated culture medium is dialysed against RPMI 1640 without supplements for 24 hours at a temperature of 4°C. The cells are incubated in the dialysed (and thus containing no free asialo GM1) culture medium for 7 days. For dialysis, the critical micellar concentration (CMC) of the ganglioside has to be regarded. If it is exceeded, dialysis will be impossible. CMC values for each ganglioside have been established, and are readily available.
# cytotoxic T lymphoblasts = experiment: Chromium release test: inhibition of tumor cell killing by cytotoxic T cells activated by interleukin 2; details: HeLa tumor cells labelled with radioactive chromium, 2 micrograms per ml of culture medium
# Experimental: The following test is conducted to determine the inhibition of tumor cell killing capability of cytotoxic T cells activated by interleukin 2. Tumor cells from HeLa strain are labelled with radioactive chromium. The cells are washed and divided into two portions comprising the same cell number. Both portions are coincubated with cytotoxic T lymphoblasts for 18 hours. The culture medium contains IL-2. To one of the portions, at the beginning of the cocultivation, desialo GM1 is added'in concentration of 2 micrograms per ml of culture medium. The culture medium is decanted and the cells are pelleted in a centrifuge.
# T cell blasts = experiment: In vitro T cell culture systems containing IL-2 (general finding)
# Text: This observation therefore leads to an in vivo procedure for modification of the cell mediated immunological graft rejection mechanism by blocking the formation of cytotoxic T cells at the level of the T effector cells and without destroying macrophage cells. Accordingly, the procedure of the present invention is highly advantageous as compared to presently available techniques for transplant protection, particularly by the use of immunosuppressive drugs. […] Therefore, such drugs will subject the patient to increased risk of infectious diseases. […] At the time of the graft transplantation therefore, the consequence of IL-2 and T cell blasts will allow the latter to proliferate until the IL-2 is consumed. This process generally requires several days. In contrast, the immunosuppressive blocking agents of this invention require less than 24 hours to effectively terminate cytotoxic T cell proliferation and to kill off any existing cytotoxic T cells.
substance,measurement,setting,value
Gal(beta 1-3)GalNac(beta 1-4)Glc(beta 1-1)Cer [asialo GM1],blast transformation of T cells,[1],no blast transformation of T cells is observed
same,"% of Cr released, Target and T cell","cytotoxic T lymphoblasts; coincubated with cytotoxic T lymphoblasts for 18 hours, IL-2 medium",5.3%
same,"% of Cr released, Target and control","cytotoxic T lymphoblasts; control in place of T cells, 18 hours",3.8%
same,proliferation of T cell blasts in growing T cell lines,T cell blasts,prevents proliferation of T cell blasts
